The results in this text go back to patent publication US20110077237A1, “KINASE INHIBITORS” (VERTEX PHARMACEUTICALS INCORPORATED, priority 2007, published 2011).

Common to all, as to type: biochemical
For test [1], the target named is T1, PKC theta (Homo sapiens, UniProt Q04759). In words: PKC Theta III assay, similar to PKC theta I with fluorescence read out. To be noted: fluorescence read out rather than UV. Here is the method:
An assay buffer solution was prepared which consisted of 100 mM HEPES (pH 7.5), 10 mM MgCl2, 25 mM NaCl, 0.1 mM EDTA and 0.01% Brij. […] To 60 μL of this enzyme buffer, in a 384 well plate, was added 2 μL of VRT stock solution in DMSO. The mixture was allowed to equilibrate for 10 mins at 30° C. The enzyme reaction was initiated by the addition of 5 μL stock ATP solution prepared in assay buffer to a final assay concentration of 240 μM. Initial rate data was determined from the rate of change of absorbance at 340 nm (corresponding to stoichiometric consumption of NADH) using a Molecular Devices Spectramax plate reader (Sunnyvale, Calif.) over 15 mins at 30° C. For each Ki determination 12 data points covering the VRT concentration range of 0-20 μM were obtained in duplicate (DMSO stocks were prepared from an initial 10 mM VRT stock with subsequent 1:2 serial dilutions). Ki values were calculated from initial rate data by non-linear regression using the Prism software package (Prism 4.0a, Graphpad Software, San Diego, Calif.).
Compounds tested in an assay similar to PKC theta I above with a fluorescence read out rather than a UV read out gave the following results: D compounds are (2-aminopyridin-3-yl)(6-(1-benzylpiperidin-4-ylamino)pyridin-2-yl)methanone, and (2-aminopyridin-3-yl)(6-(2,3-dihydroxypropylamino)pyridin-2-yl)methanone (naming by ChemDraw Ultre version 10.0).

Test [2] addresses PKC alpha kinase (Homo sapiens, UniProt P17252). The experiment in a line: PKC Alpha coupled-enzyme kinase assay. The settings on record: 4.5 nM PKC alpha, 130 μM ATP, 30° C. The procedure, abridged: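 Coupled-enzyme assay in HEPES pH 7.5 with MgCl2, CaCl2, EDTA and Brij; enzyme preincubated with compound 10 min at 30 °C, reaction started with ATP (final 130 μM).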
Test [3] addresses T1, PKC theta. The experiment in a line: PKC Theta II 33P radiometric kinase assay. To be noted: 0.5 nM PKC theta, 240 μM ATP, [γ-33P] ATP, 25° C., compound range 0-0.25 μM. As for the experimental part: An assay buffer solution was prepared which consisted of 100 mM HEPES (pH 7.5), 10 mM MgCl2, 25 mM NaCl, 0.1 mM EDTA and 0.01% Brij. An enzyme buffer containing reagents to final assay concentrations of 0.002% Triton X-100, 200 μg/mL Phosphatidylserine, 20 μg/mL Diacylglycerol, 2 mM DTT, 150 μM substrate peptide ([…]) and 0.5 nM PKC theta kinase was prepared in assay buffer. To 22 μL of this enzyme buffer, in a 96 well plate, was added 2 μL of VRT stock solution in DMSO. The mixture was allowed to equilibrate for 10 mins at 25° C. […] ATP.
The reaction was stopped after 60 minutes by the addition of 100 μL 100 mM phosphoric acid. A phosphocellulose 96 well plate (Millipore, Cat no. MAPHNOB) was washed with […] 100 mM phosphoric acid prior to the addition of the reaction mixture (120 μL) and was left to soak for at least 30 minutes, prior to wash steps (4×200 μL 100 mM phosphoric acid). After drying, 100 μL Optiphase ‘SuperMix’ liquid scintillation cocktail (Perkin Elmer) was added to the well prior to scintillation counting (1450 Microbeta Liquid Scintillation Counter, Wallac).
For each Ki determination, 11 data points covering the VRT concentration range of 0-0.25 μM were obtained in duplicate (DMSO stocks were prepared from an initial 10 mM VRT stock with subsequent 1:2 serial dilutions). Ki values were calculated from initial rate data by non-linear regression using the Prism software package (Prism 4.0a, Graphpad Software, San Diego, Calif.).

Test [4] deals with PKC delta kinase (Homo sapiens, UniProt Q05655). In words: PKC Delta coupled-enzyme kinase assay. The settings on record: 46 nM PKC delta, 150 μM ATP, 30° C.; read-out: Ki PKC delta. The procedure, abridged:
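Assay buffer was 100 mM HEPES pH 7.5, 10 mM MgCl2, 25 mM NaCl, 0.1 mM EDTA, 0.01% Brij. Enzyme buffer was equilibrated with compound in DMSO for 10 min at 30 °C. Ki values were derived by non-linear regression of initial rate data.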

In test [5] the target is T1, PKC theta. In words: PKC Theta I coupled-enzyme (NADH absorbance) kinase assay. To be noted: 18 nM PKC theta, 240 μM ATP, 30° C., absorbance at 340 nm. As for the experimental part:
An assay buffer solution was prepared which consisted of 100 mM HEPES (pH 7.5), 10 mM MgCl2, 25 mM NaCl, 0.1 mM EDTA and 0.01% Brij. […] To 60 μL of this enzyme buffer, in a 384 well plate, was added 2 μL of VRT stock solution in DMSO. The mixture was allowed to equilibrate for 10 mins at 30° C. […] Ki values were calculated from initial rate data by non-linear regression using the Prism software package (Prism 4.0a, Graphpad Software, San Diego, Calif.).

Sequence of PKC delta kinase (Q05655 whole entry): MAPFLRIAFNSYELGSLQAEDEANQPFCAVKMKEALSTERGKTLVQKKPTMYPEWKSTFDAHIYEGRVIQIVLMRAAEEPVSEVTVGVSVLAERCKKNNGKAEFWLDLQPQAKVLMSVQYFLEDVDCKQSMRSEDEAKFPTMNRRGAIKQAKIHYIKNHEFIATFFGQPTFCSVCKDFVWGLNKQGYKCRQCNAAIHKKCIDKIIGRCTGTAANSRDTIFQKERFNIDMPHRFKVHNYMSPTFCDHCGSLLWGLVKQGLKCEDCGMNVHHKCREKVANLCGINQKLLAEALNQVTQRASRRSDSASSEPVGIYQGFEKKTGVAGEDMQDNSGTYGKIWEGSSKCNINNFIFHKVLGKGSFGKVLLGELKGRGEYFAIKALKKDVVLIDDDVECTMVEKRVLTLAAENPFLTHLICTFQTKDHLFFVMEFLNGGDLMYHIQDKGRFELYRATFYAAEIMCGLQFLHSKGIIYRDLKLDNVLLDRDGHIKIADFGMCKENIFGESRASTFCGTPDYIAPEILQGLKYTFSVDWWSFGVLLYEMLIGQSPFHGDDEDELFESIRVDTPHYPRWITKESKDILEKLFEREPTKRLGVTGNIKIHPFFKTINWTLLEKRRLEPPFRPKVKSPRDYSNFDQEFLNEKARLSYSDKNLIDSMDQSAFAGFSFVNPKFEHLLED
T1 sequence (Q04759 whole entry): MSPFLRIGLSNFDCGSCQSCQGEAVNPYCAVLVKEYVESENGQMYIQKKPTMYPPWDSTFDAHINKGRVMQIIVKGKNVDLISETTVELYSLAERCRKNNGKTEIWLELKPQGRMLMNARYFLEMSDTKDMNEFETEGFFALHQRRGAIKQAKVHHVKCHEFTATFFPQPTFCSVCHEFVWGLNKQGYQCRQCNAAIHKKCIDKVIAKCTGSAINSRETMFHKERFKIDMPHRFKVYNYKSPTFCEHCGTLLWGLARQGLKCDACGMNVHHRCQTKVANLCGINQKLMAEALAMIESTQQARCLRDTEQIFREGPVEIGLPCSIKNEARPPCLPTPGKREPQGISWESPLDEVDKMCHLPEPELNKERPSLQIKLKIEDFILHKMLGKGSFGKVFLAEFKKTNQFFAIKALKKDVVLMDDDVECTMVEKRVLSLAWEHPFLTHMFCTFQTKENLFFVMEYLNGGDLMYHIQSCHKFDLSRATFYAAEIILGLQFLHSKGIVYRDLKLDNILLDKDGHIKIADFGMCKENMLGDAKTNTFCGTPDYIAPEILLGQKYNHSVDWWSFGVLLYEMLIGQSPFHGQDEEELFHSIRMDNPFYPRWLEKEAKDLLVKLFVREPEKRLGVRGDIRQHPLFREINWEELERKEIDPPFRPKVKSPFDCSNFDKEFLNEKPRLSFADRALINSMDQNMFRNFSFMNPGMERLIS

For the molecule `Nc1ncccc1C(=O)c1cccc(NC2CCN(Cc3ccccc3)CC2)n1` [(2-aminopyridin-3-yl)(6-(1-benzylpiperidin-4-ylamino)pyridin-2-yl)methanone], the Ki in test [1] was over 2800 nM.

Turning to `Nc1ncccc1C(=O)c1cccc(NCC(O)CO)n1` (stereo not shown) [(2-aminopyridin-3-yl)(6-(2,3-dihydroxypropylamino)pyridin-2-yl)methanone], the Ki in test [1] was over 2800 nM.

`Nc1ncc(Br)cc1C(=O)c1cccc(N2CCCNCC2)n1` [compound 14, (6-(1,4-diazepan-1-yl)pyridin-2-yl)(2-amino-5-bromopyridin-3-yl)methanone]: the Ki in test [2] is under 50 nM; in test [3], under 50 nM; in test [4], 50 to 500 nM.

In the case of `Nc1ncc(-c2ccccc2)cc1C(=O)c1cccc(N2CCCNCC2)n1` [compound 45], the Ki in test [2] was under 50 nM; in test [3] it was under 50 nM; in test [4], 50 to 500 nM.

As to `C=Cc1cnc(N)c(C(=O)c2cccc(N3CCCNCC3)n2)c1` [compound 66], the Ki in test [2] is under 50 nM; in test [3] it was 50 to 500 nM; in test [4] it was 50 to 500 nM.

Turning to `CN1CCCN(c2cccc(C(=O)c3cc(Br)cnc3N)n2)CC1` [compound 67], the Ki is under 50 nM in test [3] and 50 to 500 nM in test [4].

`Nc1ncc(Br)cc1C(=O)c1cccc(N2CCCN(C(=O)CC(F)(F)F)CC2)n1` [compound 75, 1-(4-(6-(2-amino-5-bromonicotinoyl)pyridin-2-yl)-1,4-diazepan-1-yl)-3,3,3-trifluoropropan-1-one]: the Ki in test [3] was under 50 nM; in test [4], 50 to 500 nM.

As to `C=Cc1cnc(N)c(C(=O)c2cccc(N3CCCN(C(=O)CC(F)(F)F)CC3)n2)c1` [compound 107, 1-(4-(6-(2-amino-5-vinylnicotinoyl)pyridin-2-yl)-1,4-diazepan-1-yl)-3,3,3-trifluoropropan-1-one], the figures for the Ki in test [3] and in test [4] were under 50 nM and 50 to 500 nM, respectively.

Take `C=Cc1cnc(N)c(C(=O)c2cccc(N3CCC(N)CC3)n2)c1` [compound 164]: the Ki in test [3] fell in the range of 50 to 500 nM.

Regarding `Nc1ncc(-c2c[nH]c3ccccc23)cc1C(=O)c1cccc(N2CCCNCC2)n1` [compound 179], the Ki in test [2] is under 50 nM; in test [3], 50 to 500 nM.

On to `CC1CNCCN1c1cccc(C(=O)c2cccnc2N)n1` (stereo not shown) [compound 191], for which the Ki in test [3] was 50 to 500 nM.

In test [3], `CC(C)C[C@H]1CN(c2cccc(C(=O)c3cccnc3N)n2)CCN1` [compound 193] gave a Ki of 50 to 500 nM.

As for `Cn1cc(-c2cnc(N)c(C(=O)c3cccc(N4CCCNCC4)n3)c2)c2ccccc21` [compound 210], the Ki in test [2] is under 50 nM; in test [3], 50 to 500 nM.

`Nc1ncc(-c2c[nH]c3ccccc23)cc1C(=O)c1cncc(N2CCCNCC2)n1` [compound 213] displayed a Ki in test [3] of 50 to 500 nM.

In turn, `Nc1ncccc1C(=O)c1cccc(N2CCNC(c3cccc(Cl)c3)C2)n1` (stereo not shown) [compound 301] came in with a Ki in test [3] of 50 to 500 nM.

Consider `C=Cc1ccc(N2CCN[C@@H](CC(C)C)C2)nc1C(=O)c1cccnc1N` [compound 346], for which the Ki in test [3] is 50 to 500 nM.

As for `C#Cc1ccc(N2CCN[C@@H](CC(C)C)C2)nc1C(=O)c1cccnc1N` [compound 357], the Ki in test [3] lay within 50 to 500 nM.

Molecule `C/C=C/c1ccc(N2CCN[C@@H](CC(C)C)C2)nc1C(=O)c1cccnc1N` [compound 361] came in with a Ki in test [3] of 50 to 500 nM.

With `CCCNc1ccc(C(F)(F)F)c(C(=O)c2cccnc2N)n1` [compound 398], the Ki in test [2], in test [5] and in test [4] was 500 to 2800 nM each time.

As to `CC(C)C(CO)Nc1ccc(C(F)(F)F)c(C(=O)c2cccnc2N)n1` (stereo not shown) [compound 399], the Ki in test [2], in test [5] and in test [4] was 500 to 2800 nM each time.

`CC#Cc1ccc(N2CCN[C@@H](CC(C)C)C2)nc1C(=O)c1cccnc1N` [compound 402]: the Ki in test [2] was under 50 nM; in test [3], 50 to 500 nM.

In the case of `NCCCOc1ccc(C(F)(F)F)c(C(=O)c2cccnc2N)n1` [compound 405], the Ki in test [2], in test [5] and in test [4] was 500 to 2800 nM throughout.

Turning to `CC(C)C[C@H]1CN(c2ccc(C#CC3CC3)c(C(=O)c3cccnc3N)n2)CCN1` [compound 407], the Ki in test [2], in test [5] and in test [4] was 500 to 2800 nM throughout.

As to `Nc1ncccc1C(=O)c1nc(N2CCNC(c3ccccc3)C2)ccc1C#CC1CC1` (stereo not shown) [compound 408], the Ki in test [2], in test [5] and in test [4] was 500 to 2800 nM each time.

Take `Nc1ncccc1C(=O)c1nc(N2CCNCC2)ccc1C#CC1CC1` [compound 409]: the Ki in test [2], in test [5] and in test [4] was 500 to 2800 nM throughout.

Turning to `Nc1ncccc1C(=O)c1nc(NC2CCCCC2N)ccc1C(F)(F)F` (stereo not shown) [compound 414], the Ki in test [2], in test [5] and in test [4] was 500 to 2800 nM each time.

Consider `Nc1ncccc1C(=O)c1nc(N2CCNCC2)ccc1Cc1ccccc1` [compound 417], for which the Ki in test [2], in test [5] and in test [4] was 500 to 2800 nM each time.

`Nc1ncccc1C(=O)c1nc(NCCCO)ccc1C(F)(F)F` [compound 419]: the Ki in test [2], in test [5] and in test [4] was 500 to 2800 nM throughout.

As to `CC(C)C[C@H]1CN(c2ccc(-c3cnn(C)c3)c(C(=O)c3cccnc3N)n2)CCN1` [compound 420], the Ki in test [2], in test [5] and in test [4] was 500 to 2800 nM in each case.
